In patent US7063946B2, “Methods, reagents, kits and apparatus for protein function analysis” (Meso Scale Technologies, LLC., priority 2001, dated 2006):

What was measured:
[1] = test system: pooled phosphopeptide:BSA conjugates (Pools A-D); assay: Coded multiplex phosphopeptide binding assay with pooled peptide:BSA conjugates on 4 spots; details: for ECL signal, spot A: Pool A, EGFR-pTyr1148, IkBa-24ppC, Myc-p58Tp62S; for ECL signal, spot B: Pool B, EGFR-pTyr992, EGFR-pTyr1148, Smad3C; for ECL signal, spot C: Pool C, EGFR-pTyr1068, IkBa-24ppC, Smad3C; for ECL signal, spot D: Pool D, EGFR-pTyr992, EGFR-pTyr1068, Myc-p58Tp62S
Description: To prepare the Multi-Spot IPR plates, in this example we made use of pools of the peptide:BSA conjugates to coat each of 4 spots per well in a 96 well plate. To achieve this we made the following pools; • Pool A; EGFR-pTyr1148, IkBa-24ppC, Myc-p58Tp62S. • Pool B; EGFR-pTyr992, EGFR-pTyr1148, Smad3C. • Pool C; EGFR-pTyr1068, IkBa-24ppC, Smad3C. • Pool D; EGFR-pTyr992, EGFR-pTyr1068, Myc-p58Tp62S.
This combination of the various peptides results in any single peptide being present in two pools. Each of these four pools is then spotted on to a unique spot in a 4 spot array. In this way any single binding protein with specificity for only one of the peptides would bind to two spots; the identity of the two spots would allow the identification of the peptide involved in the binding reaction.
Typically approximately 120 fmole of peptide:BSA conjugate in 0.25 μl was deposited on each spot of a 4-spot multi-array IPR plates using a BioDot Dispenser (Bio-Dot Inc., vIrvine Calif.). At this stage, the plates were dried then used or stored under desiccated condition. A few hours prior to usage, the plates were rehydrated and blocked with 3% BSA, in PBS.
To test the system the following EST clones IMAGE # 3491843, 4237375, 4398016, 4419252, 3872466, 3907115 were obtained. These clones express the following genes βTRCP1, βTRCP2, Grb2, PLCγ, CBP and Shc1, respectively. […] These DNAs were used to produce proteins as described in the Materials and Methods. Proteins were transferred to a well of the 4 spot peptide-coated and BSA blocked ECL plates. The binding assay (using Sulfo-TAG labeled streptavidin as a detection agent) was carried our according to the procedures described in Example 11.

Epha7 = molecular target: T1, Epha7 (Mus musculus, UniProt Q61772); assay: Kinase inhibitor profiling, autophosphorylation; assay type: biochemical
T1 construct: autophosphorylation activity from full-length clones Spleen Tyrosine Kinase (SYK) and Eph receptor-A7 (EphA7); host or cells: rabbit reticulocyte lysate, TnT coupled in vitro transcription/translation (cell-free)
T1 sequence (Q61772 28-998): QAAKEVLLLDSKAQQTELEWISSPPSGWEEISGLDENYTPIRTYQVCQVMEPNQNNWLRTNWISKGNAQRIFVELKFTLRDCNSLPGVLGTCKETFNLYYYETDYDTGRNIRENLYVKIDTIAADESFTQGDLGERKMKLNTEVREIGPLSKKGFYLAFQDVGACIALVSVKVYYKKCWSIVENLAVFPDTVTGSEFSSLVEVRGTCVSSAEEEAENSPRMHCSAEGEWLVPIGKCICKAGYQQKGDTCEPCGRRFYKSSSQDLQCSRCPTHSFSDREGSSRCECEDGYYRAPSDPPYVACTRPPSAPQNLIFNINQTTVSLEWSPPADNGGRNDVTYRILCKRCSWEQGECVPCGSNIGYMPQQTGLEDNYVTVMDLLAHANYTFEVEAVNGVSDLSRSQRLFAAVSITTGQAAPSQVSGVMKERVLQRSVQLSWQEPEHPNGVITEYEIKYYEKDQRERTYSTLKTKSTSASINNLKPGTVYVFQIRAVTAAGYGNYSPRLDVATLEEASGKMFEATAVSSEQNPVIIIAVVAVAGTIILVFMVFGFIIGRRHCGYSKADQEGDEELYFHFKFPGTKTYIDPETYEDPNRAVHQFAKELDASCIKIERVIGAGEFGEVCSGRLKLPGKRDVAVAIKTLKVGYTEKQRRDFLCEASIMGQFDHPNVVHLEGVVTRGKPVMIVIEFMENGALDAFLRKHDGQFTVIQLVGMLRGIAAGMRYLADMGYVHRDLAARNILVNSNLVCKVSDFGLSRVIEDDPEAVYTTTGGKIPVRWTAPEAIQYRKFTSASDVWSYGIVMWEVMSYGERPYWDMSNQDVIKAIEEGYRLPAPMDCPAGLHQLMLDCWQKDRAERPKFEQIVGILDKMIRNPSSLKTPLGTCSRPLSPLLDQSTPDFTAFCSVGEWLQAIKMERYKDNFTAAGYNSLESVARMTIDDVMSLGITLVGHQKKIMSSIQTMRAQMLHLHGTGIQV

Compound | Code (pattern of positive spots) [1] | Peptide determined from code [1] | ECL signal, spot A [1] | ECL signal, spot B [1] | ECL signal, spot C [1] | ECL signal, spot D [1] | Inhibition specificity towards Autophosphorylation at 10X IC50, Epha7 (Epha7)
3491843: IMAGE clone protein: βTRCP1 [compound 3491843] | A, C | IkBa-24ppC | 9536 | 208 | 11184 | 171 | –
3872466: IMAGE clone protein: mCBP [compound 3872466] | Neg. | Negative | 19 | 30 | 22 | 15 | –
Cc1cc2ncc(-c3ccc(O)c(O)c3)nc2cc1C [AG-1433] | – | – | – | – | – | – | H (high inhibition (“H”=less than 25% of the activity remaining))
COc1c(C=O)c(O)cc2c1C(=O)c1ccccc1C2=O [Damnacanthal] | – | – | – | – | – | – | H (high inhibition (“H”=less than 25% of the activity remaining))
